Columns and labels:
Experiment in all cases: relative viability (nuclei count vs DMSO), 5 days (fraction); higher = more cells survive
Shikonin + Olaparib = compound: CC(C)=CC[C@@H](O)C1=CC(=O)c2c(O)ccc(O)c2C1=O [Shikonin] + O=C(c1cc(Cc2n[nH]c(=O)c3ccccc23)ccc1F)N1CCN(C(=O)C2CC2)CC1 [Olaparib] (partner 8 µM)
How it was run: (§1)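 A single step with final 0.05% Triton X-100, 1% formaldehyde and 1 ug/ml Hoechst fixed the cells and stained nuclei 5 days after treatment. Lung cancer cell lines in 1536-well plates had been treated by pin tool the day after seeding with one drug alone or a fixed anchor-drug dose plus five library-drug doses (not always all listed) in √10 steps, and nuclei were counted on 4× images. Relative viability is the ratio of nuclei in treated wells to nuclei in vehicle wells, taken as the median of duplicate plates.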

Shikonin + Pemetrexed = compound: CC(C)=CC[C@@H](O)C1=CC(=O)c2c(O)ccc(O)c2C1=O [Shikonin] + Nc1nc2[nH]cc(CCc3ccc(C(=O)N[C@@H](CCC(=O)O)C(=O)O)cc3)c2c(=O)[nH]1 [Pemetrexed] (partner 0.2 µM)
How it was run: as §1

[1] = compound: CC(C)N(CCCNC(=O)Nc1ccc(C(C)(C)C)cc1)C[C@H]1O[C@@H](n2ccc3c(N)ncnc32)[C@H](O)[C@@H]1O + O=C(CCCCCCC(=O)Nc1ccccc1)NO [Vorinostat] (partner 1 µM)
How it was run: as §1

[2] = compound: CC(C)N(CCCNC(=O)Nc1ccc(C(C)(C)C)cc1)C[C@H]1O[C@@H](n2ccc3c(N)ncnc32)[C@H](O)[C@@H]1O + CS(=O)(=O)N1CCN(Cc2cc3nc(-c4cccc5[nH]ncc45)nc(N4CCOCC4)c3s2)CC1 [Pictilisib] (partner 1 µM)
How it was run: as §1

For HCC-827, the relative viability (Shikonin + Olaparib; first compound 0.01 µM) was 0.678, the relative viability (Shikonin + Olaparib; first compound 0.1 µM) was 0.562 and the relative viability (Shikonin + Olaparib; first compound 0.3162 µM) was 0.621. For the same cell line, the relative viability (Shikonin + Olaparib; first compound 1 µM) was 0.52, the relative viability (Shikonin + Pemetrexed; first compound 0.01 µM) was 0.23 and the relative viability (Shikonin + Pemetrexed; first compound 0.1 µM) was 0.283. For the same cell line, the relative viability (Shikonin + Pemetrexed; first compound 0.3162 µM) was 0.234, the relative viability (Shikonin + Pemetrexed; first compound 1 µM) was 0.259 and the relative viability ([1]; first compound 0.08 µM) was 0.862. It also gave a relative viability ([1]; first compound 0.253 µM) of 0.903, a relative viability ([1]; first compound 0.8 µM) of 0.579 and a relative viability ([1]; first compound 2.53 µM) of 0.902. For the same cell line, the relative viability ([1]; first compound 8 µM) was 0.875, the relative viability ([2]; first compound 0.08 µM) was 0.951 and the relative viability ([2]; first compound 0.253 µM) was 1.1. For the same cell line, the relative viability ([2]; first compound 0.8 µM) was 0.886, the relative viability ([2]; first compound 2.53 µM) was 1.07 and the relative viability ([2]; first compound 8 µM) was 0.9.

HOP-62 showed a relative viability (Shikonin + Olaparib; first compound 0.01 µM) of 0.267, a relative viability (Shikonin + Olaparib; first compound 0.1 µM) of 0.455 and a relative viability (Shikonin + Olaparib; first compound 0.3162 µM) of 0.379. The relative viability (Shikonin + Olaparib; first compound 1 µM) was 0.676, the relative viability (Shikonin + Pemetrexed; first compound 0.01 µM) was 0.432 and the relative viability (Shikonin + Pemetrexed; first compound 0.1 µM) was 0.353. It also gave a relative viability (Shikonin + Pemetrexed; first compound 0.3162 µM) of 0.349, a relative viability (Shikonin + Pemetrexed; first compound 1 µM) of 0.278 and a relative viability ([1]; first compound 0.08 µM) of 0.711. It also gave a relative viability ([1]; first compound 0.253 µM) of 0.555, a relative viability ([1]; first compound 0.8 µM) of 0.445 and a relative viability ([1]; first compound 2.53 µM) of 0.58. The relative viability ([1]; first compound 8 µM) was 0.458, the relative viability ([2]; first compound 0.08 µM) was 0.723 and the relative viability ([2]; first compound 0.253 µM) was 0.413. For the same cell line, the relative viability ([2]; first compound 0.8 µM) was 0.655, the relative viability ([2]; first compound 2.53 µM) was 0.776 and the relative viability ([2]; first compound 8 µM) was 0.342.

With IA-LM the relative viability (Shikonin + Olaparib; first compound 0.01 µM) was 0.993, the relative viability (Shikonin + Olaparib; first compound 0.1 µM) was 0.891 and the relative viability (Shikonin + Olaparib; first compound 0.3162 µM) was 0.893. For the same cell line, the relative viability (Shikonin + Olaparib; first compound 1 µM) was 0.885, the relative viability ([1]; first compound 0.08 µM) was 0.88 and the relative viability ([1]; first compound 0.253 µM) was 0.761. For the same cell line, the relative viability ([1]; first compound 0.8 µM) was 0.909, the relative viability ([1]; first compound 2.53 µM) was 0.968 and the relative viability ([1]; first compound 8 µM) was 0.96. The relative viability ([2]; first compound 0.08 µM) was 0.27, the relative viability ([2]; first compound 0.253 µM) was 0.347 and the relative viability ([2]; first compound 0.8 µM) was 0.447. For the same cell line, the relative viability ([2]; first compound 2.53 µM) was 0.398 and the relative viability ([2]; first compound 8 µM) was 0.378.

With LC-2-ad the relative viability (Shikonin + Olaparib; first compound 0.01 µM) was 0.736, the relative viability (Shikonin + Olaparib; first compound 0.1 µM) was 0.872 and the relative viability (Shikonin + Olaparib; first compound 0.3162 µM) was 0.689. For the same cell line, the relative viability (Shikonin + Olaparib; first compound 1 µM) was 0.765, the relative viability (Shikonin + Pemetrexed; first compound 0.01 µM) was 0.297 and the relative viability (Shikonin + Pemetrexed; first compound 0.1 µM) was 0.273. It also gave a relative viability (Shikonin + Pemetrexed; first compound 0.3162 µM) of 0.269, a relative viability (Shikonin + Pemetrexed; first compound 1 µM) of 0.282 and a relative viability ([1]; first compound 0.08 µM) of 0.666. It also gave a relative viability ([1]; first compound 0.253 µM) of 0.784, a relative viability ([1]; first compound 0.8 µM) of 0.55 and a relative viability ([1]; first compound 2.53 µM) of 0.722. It also gave a relative viability ([1]; first compound 8 µM) of 0.671, a relative viability ([2]; first compound 0.08 µM) of 0.612 and a relative viability ([2]; first compound 0.253 µM) of 0.518. For the same cell line, the relative viability ([2]; first compound 0.8 µM) was 0.413, the relative viability ([2]; first compound 2.53 µM) was 0.511 and the relative viability ([2]; first compound 8 µM) was 0.427.

LCLC-97TM1 was tested, and the relative viability (Shikonin + Olaparib; first compound 0.01 µM) was 0.383, the relative viability (Shikonin + Olaparib; first compound 0.1 µM) was 0.539 and the relative viability (Shikonin + Olaparib; first compound 0.3162 µM) was 0.48. For the same cell line, the relative viability (Shikonin + Olaparib; first compound 1 µM) was 0.419, the relative viability (Shikonin + Pemetrexed; first compound 0.01 µM) was 0.123 and the relative viability (Shikonin + Pemetrexed; first compound 0.1 µM) was 0.162. For the same cell line, the relative viability (Shikonin + Pemetrexed; first compound 0.3162 µM) was 0.155, the relative viability (Shikonin + Pemetrexed; first compound 1 µM) was 0.16 and the relative viability ([1]; first compound 0.08 µM) was 0.893. The relative viability ([1]; first compound 0.253 µM) was 0.656, the relative viability ([1]; first compound 0.8 µM) was 0.801 and the relative viability ([1]; first compound 2.53 µM) was 0.661. For the same cell line, the relative viability ([1]; first compound 8 µM) was 0.831, the relative viability ([2]; first compound 0.08 µM) was 0.184 and the relative viability ([2]; first compound 0.8 µM) was 0.147. For the same cell line, the relative viability ([2]; first compound 2.53 µM) was 0.202 and the relative viability ([2]; first compound 8 µM) was 0.178.

With LCLC-103H the relative viability (Shikonin + Olaparib; first compound 0.01 µM) was 0.793, the relative viability (Shikonin + Olaparib; first compound 0.1 µM) was 0.94 and the relative viability (Shikonin + Olaparib; first compound 0.3162 µM) was 0.788. It also gave a relative viability (Shikonin + Olaparib; first compound 1 µM) of 0.839, a relative viability (Shikonin + Pemetrexed; first compound 0.01 µM) of 0.436 and a relative viability (Shikonin + Pemetrexed; first compound 0.1 µM) of 0.49. The relative viability (Shikonin + Pemetrexed; first compound 0.3162 µM) was 0.46, the relative viability (Shikonin + Pemetrexed; first compound 1 µM) was 0.477 and the relative viability ([1]; first compound 0.08 µM) was 0.717. The relative viability ([1]; first compound 0.253 µM) was 0.692, the relative viability ([1]; first compound 0.8 µM) was 0.585 and the relative viability ([1]; first compound 2.53 µM) was 0.701. It also gave a relative viability ([1]; first compound 8 µM) of 0.748, a relative viability ([2]; first compound 0.08 µM) of 0.639 and a relative viability ([2]; first compound 0.253 µM) of 0.522. The relative viability ([2]; first compound 0.8 µM) was 0.703, the relative viability ([2]; first compound 2.53 µM) was 0.551 and the relative viability ([2]; first compound 8 µM) was 0.716.

With LK-2 the relative viability (Shikonin + Olaparib; first compound 0.01 µM) was 0.744, the relative viability (Shikonin + Olaparib; first compound 0.1 µM) was 0.887 and the relative viability (Shikonin + Olaparib; first compound 0.3162 µM) was 0.75. It also gave a relative viability (Shikonin + Olaparib; first compound 1 µM) of 0.753, a relative viability (Shikonin + Pemetrexed; first compound 0.01 µM) of 0.311 and a relative viability (Shikonin + Pemetrexed; first compound 0.1 µM) of 0.3. It also gave a relative viability (Shikonin + Pemetrexed; first compound 0.3162 µM) of 0.306, a relative viability (Shikonin + Pemetrexed; first compound 1 µM) of 0.266 and a relative viability ([1]; first compound 0.08 µM) of 0.325. It also gave a relative viability ([1]; first compound 0.253 µM) of 0.282, a relative viability ([1]; first compound 0.8 µM) of 0.391 and a relative viability ([1]; first compound 2.53 µM) of 0.315. It also gave a relative viability ([1]; first compound 8 µM) of 0.213, a relative viability ([2]; first compound 0.08 µM) of 0.56 and a relative viability ([2]; first compound 0.253 µM) of 0.532. It also gave a relative viability ([2]; first compound 0.8 µM) of 0.651, a relative viability ([2]; first compound 2.53 µM) of 0.644 and a relative viability ([2]; first compound 8 µM) of 0.609.

LOU-NH91 was tested, and the relative viability (Shikonin + Olaparib; first compound 0.01 µM) was 0.926, the relative viability (Shikonin + Olaparib; first compound 0.1 µM) was 0.937 and the relative viability (Shikonin + Olaparib; first compound 0.3162 µM) was 0.984. The relative viability (Shikonin + Olaparib; first compound 1 µM) was 0.896, the relative viability (Shikonin + Pemetrexed; first compound 0.01 µM) was 0.367 and the relative viability (Shikonin + Pemetrexed; first compound 0.1 µM) was 0.381. The relative viability (Shikonin + Pemetrexed; first compound 0.3162 µM) was 0.381, the relative viability (Shikonin + Pemetrexed; first compound 1 µM) was 0.458 and the relative viability ([1]; first compound 0.08 µM) was 0.9. For the same cell line, the relative viability ([1]; first compound 0.253 µM) was 0.832, the relative viability ([1]; first compound 2.53 µM) was 0.943 and the relative viability ([1]; first compound 8 µM) was 0.869. For the same cell line, the relative viability ([2]; first compound 0.08 µM) was 0.537, the relative viability ([2]; first compound 0.253 µM) was 0.527 and the relative viability ([2]; first compound 2.53 µM) was 0.556. It also gave a relative viability ([2]; first compound 8 µM) of 0.545.

LU99A was tested, and the relative viability (Shikonin + Olaparib; first compound 0.01 µM) was 0.256, the relative viability (Shikonin + Olaparib; first compound 0.1 µM) was 0.272 and the relative viability (Shikonin + Olaparib; first compound 0.3162 µM) was 0.233. For the same cell line, the relative viability (Shikonin + Olaparib; first compound 1 µM) was 0.222, the relative viability (Shikonin + Pemetrexed; first compound 0.01 µM) was 0.174 and the relative viability (Shikonin + Pemetrexed; first compound 0.1 µM) was 0.206. The relative viability (Shikonin + Pemetrexed; first compound 0.3162 µM) was 0.191, the relative viability (Shikonin + Pemetrexed; first compound 1 µM) was 0.199 and the relative viability ([1]; first compound 0.08 µM) was 0.454. It also gave a relative viability ([1]; first compound 0.253 µM) of 0.342, a relative viability ([1]; first compound 0.8 µM) of 0.483 and a relative viability ([1]; first compound 2.53 µM) of 0.539. It also gave a relative viability ([1]; first compound 8 µM) of 0.409, a relative viability ([2]; first compound 0.08 µM) of 0.332 and a relative viability ([2]; first compound 0.253 µM) of 0.287. For the same cell line, the relative viability ([2]; first compound 0.8 µM) was 0.411, the relative viability ([2]; first compound 2.53 µM) was 0.369 and the relative viability ([2]; first compound 8 µM) was 0.312.

Source: the supplement of paper PMC10307832
